Measurements reported in ChEMBL document CHEMBL1201862, “PubChem BioAssay data set” (2004).
Calls of active or inactive are those of the source.

How the values were obtained:
Cytochrome P450 2C19 = Cytochrome P450 2C19 (Homo sapiens, UniProt P33261); test: Cytochrome panel assay with activity outcomes. Panel member name: p450-cyp2c19 Compounds with AC50 equal or less than 10 uM are considered active; type: functional; details: read-out: AC50
Cytochrome P450 2D6 = Cytochrome P450 2D6 (Homo sapiens, UniProt P10635);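 further: CYP2D6 member of a cytochrome P450 panel assay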
Sequence of Cytochrome P450 2D6 (P10635 whole entry): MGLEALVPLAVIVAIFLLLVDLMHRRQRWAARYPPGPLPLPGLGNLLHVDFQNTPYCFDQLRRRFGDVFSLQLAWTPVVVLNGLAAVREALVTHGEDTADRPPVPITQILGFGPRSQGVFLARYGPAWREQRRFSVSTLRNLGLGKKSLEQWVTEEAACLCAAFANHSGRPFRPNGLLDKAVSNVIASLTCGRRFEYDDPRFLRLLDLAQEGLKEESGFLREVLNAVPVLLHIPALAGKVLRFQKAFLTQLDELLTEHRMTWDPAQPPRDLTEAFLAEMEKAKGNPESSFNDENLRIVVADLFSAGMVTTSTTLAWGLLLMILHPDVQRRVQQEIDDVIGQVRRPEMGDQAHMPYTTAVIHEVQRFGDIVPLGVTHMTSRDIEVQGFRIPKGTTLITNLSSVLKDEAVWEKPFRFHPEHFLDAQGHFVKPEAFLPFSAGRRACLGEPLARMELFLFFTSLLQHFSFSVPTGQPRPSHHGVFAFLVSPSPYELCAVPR

Cytochrome P450 3A4 = Cytochrome P450 3A4 (Homo sapiens, UniProt P08684);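 further: CYP3A4 tested as one member of a cytochrome P450 panel screen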
Sequence of Cytochrome P450 3A4 (P08684 whole entry): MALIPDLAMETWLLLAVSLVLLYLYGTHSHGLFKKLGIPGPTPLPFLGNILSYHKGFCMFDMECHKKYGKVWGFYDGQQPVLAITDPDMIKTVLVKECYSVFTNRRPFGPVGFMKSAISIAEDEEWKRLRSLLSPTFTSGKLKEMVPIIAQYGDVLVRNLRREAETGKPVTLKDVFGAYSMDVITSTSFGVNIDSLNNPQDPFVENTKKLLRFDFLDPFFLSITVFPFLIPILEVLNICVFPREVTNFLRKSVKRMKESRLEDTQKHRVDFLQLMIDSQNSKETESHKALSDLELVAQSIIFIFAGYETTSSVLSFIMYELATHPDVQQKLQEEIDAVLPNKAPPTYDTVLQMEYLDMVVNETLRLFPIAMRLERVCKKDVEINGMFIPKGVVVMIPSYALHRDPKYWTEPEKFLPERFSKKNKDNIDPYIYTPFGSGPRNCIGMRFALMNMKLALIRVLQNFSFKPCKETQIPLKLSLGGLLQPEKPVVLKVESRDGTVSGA

cells = type: functional
[1] = NIH-3T3 fibroblast cytotoxicity, dose response, cytotoxicity control, cell-based, fluorescence, Alamar Blue, secondary assay (AID 2327); type: functional;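 further: NIH-3T3 mouse fibroblasts cultured with fluconazole at 8 µg/mL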
[2] = fluconazole-exposed Candida albicans growth modulators – fluorescence, retest, confirmation (AID 2467); type: functional, cell-based
[3] = Trypanosoma cruzi growth suppression in host cells – NIH3T3 host cells, beta-gal luminescence, confirmation (AID 2044); type: functional, cell-based;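 further: intracellular parasites grown in NIH/3T3 mouse fibroblasts as host cells; luminescent beta-galactosidase reporter signal from transgenic T. cruzi replicating inside host cells; inhibitors lower the luminescence signal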
[4] = microbe, parasite or virus in culture; type: functional; details: Mycobacterium tuberculosis
[5] = NIH3T3 cell viability loss – ATP luminescence, mouse fibroblasts, counter-screen, dose response (AID 2010); type: functional, cell-based;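 further: cells exposed to compound for about 90 hours before reading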
Protein skinhead-1 = molecular target: T1, Protein skinhead-1 (Caenorhabditis elegans, UniProt P34707); type: functional
T1 sequence (P34707 whole entry): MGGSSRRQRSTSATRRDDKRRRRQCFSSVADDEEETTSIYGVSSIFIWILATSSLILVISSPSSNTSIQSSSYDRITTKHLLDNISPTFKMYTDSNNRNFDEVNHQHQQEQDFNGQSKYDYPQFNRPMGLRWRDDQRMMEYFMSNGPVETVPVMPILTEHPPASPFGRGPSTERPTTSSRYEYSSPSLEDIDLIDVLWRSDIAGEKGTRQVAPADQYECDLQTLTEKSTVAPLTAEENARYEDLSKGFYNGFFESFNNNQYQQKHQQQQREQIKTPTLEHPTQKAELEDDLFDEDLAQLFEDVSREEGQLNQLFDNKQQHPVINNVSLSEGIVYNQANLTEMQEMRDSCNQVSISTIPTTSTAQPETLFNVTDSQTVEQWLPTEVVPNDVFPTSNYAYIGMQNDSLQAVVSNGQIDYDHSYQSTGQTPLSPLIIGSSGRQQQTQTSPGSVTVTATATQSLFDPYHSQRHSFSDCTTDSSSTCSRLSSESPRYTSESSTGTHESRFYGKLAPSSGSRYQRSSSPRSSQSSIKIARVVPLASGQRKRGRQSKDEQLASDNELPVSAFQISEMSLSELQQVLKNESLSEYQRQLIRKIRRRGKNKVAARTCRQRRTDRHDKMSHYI

Cytochrome P450 2C9 = Cytochrome P450 2C9 (Homo sapiens, UniProt P11712)
Sequence of Cytochrome P450 2C9 (P11712 whole entry): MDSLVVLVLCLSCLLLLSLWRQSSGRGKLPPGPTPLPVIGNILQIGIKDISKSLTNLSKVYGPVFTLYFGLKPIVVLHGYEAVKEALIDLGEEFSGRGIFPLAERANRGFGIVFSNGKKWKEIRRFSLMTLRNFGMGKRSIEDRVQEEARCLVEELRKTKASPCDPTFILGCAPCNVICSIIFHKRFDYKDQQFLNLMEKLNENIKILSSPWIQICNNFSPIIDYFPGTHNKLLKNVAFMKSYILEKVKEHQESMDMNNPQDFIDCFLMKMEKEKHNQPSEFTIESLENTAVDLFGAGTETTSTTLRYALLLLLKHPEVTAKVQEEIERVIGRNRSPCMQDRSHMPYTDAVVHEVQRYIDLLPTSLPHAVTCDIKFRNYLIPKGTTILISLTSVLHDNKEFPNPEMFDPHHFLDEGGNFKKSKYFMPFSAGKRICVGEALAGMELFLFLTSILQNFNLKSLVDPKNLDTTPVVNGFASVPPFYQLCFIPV

[6] = molecular target: T2, Replicative DNA helicase DnaB (Mycobacterium tuberculosis, UniProt P9WMR3); test: DnaB intein splicing inhibitors, dose response, biochemical, cell-free fluorescence (AID 449749); type: functional
T2 sequence (P9WMR3 whole entry): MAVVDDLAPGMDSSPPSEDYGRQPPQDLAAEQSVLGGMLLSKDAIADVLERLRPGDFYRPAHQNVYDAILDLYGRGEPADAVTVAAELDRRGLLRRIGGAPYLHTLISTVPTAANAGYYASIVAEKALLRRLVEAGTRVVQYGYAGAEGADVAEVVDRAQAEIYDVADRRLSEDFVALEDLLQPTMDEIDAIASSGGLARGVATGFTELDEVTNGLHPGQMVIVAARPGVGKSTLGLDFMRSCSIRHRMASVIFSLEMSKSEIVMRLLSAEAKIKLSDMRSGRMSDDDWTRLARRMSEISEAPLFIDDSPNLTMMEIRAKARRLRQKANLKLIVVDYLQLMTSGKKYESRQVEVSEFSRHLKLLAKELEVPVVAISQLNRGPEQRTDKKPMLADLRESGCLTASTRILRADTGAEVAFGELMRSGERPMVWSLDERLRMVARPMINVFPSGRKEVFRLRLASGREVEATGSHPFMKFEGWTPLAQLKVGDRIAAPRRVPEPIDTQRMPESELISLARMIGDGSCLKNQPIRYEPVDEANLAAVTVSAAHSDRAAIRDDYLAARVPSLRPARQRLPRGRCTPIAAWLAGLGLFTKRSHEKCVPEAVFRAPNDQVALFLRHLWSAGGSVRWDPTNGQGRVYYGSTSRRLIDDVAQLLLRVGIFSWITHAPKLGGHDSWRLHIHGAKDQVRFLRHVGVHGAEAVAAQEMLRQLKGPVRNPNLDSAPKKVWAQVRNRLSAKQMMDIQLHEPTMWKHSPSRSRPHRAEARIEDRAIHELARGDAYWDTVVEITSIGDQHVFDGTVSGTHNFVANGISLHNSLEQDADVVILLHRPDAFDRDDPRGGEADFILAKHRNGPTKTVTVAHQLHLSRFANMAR

Protein RecA = molecular target: T3, Protein RecA (Mycobacterium tuberculosis, UniProt P9WHJ3); test: Fluorescence Cell-Free Homogeneous Dose Retest to Identify Inhibitors of RecA-Intein Splicing Activity. [Related pubchem assays (depositor defined):AID2097, AID2223, AID489010, AID492950]; type: functional
T3 sequence (P9WHJ3 whole entry): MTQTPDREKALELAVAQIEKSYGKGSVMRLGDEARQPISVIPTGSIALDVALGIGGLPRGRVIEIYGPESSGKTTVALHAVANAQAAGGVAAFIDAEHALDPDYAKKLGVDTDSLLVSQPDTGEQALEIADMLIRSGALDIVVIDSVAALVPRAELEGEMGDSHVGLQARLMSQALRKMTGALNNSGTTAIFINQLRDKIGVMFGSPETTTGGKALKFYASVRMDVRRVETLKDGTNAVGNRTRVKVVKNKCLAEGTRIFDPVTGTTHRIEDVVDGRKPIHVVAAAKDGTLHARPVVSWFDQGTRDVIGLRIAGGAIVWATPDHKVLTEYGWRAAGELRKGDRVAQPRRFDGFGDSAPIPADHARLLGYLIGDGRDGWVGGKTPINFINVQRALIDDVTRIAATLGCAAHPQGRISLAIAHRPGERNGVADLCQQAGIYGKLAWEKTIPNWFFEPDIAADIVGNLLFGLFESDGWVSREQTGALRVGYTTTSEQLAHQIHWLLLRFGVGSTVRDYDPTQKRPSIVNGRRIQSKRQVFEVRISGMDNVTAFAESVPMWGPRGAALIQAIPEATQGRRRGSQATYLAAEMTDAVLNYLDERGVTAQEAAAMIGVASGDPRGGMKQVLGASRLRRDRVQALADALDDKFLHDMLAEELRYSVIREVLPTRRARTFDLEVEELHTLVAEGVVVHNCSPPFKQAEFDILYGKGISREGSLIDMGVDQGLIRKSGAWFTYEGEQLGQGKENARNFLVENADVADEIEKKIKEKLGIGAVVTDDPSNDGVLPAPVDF

[7] = molecular target: T4, Corticotropin-releasing factor receptor 2/Corticotropin-releasing factor-binding protein (Homo sapiens, UniProt P24387+Q13324); test: Dose Response confirmation of uHTS hits for small molecule antagonists of the CRF-binding protein and CRF-R2 receptor complex.; type: functional; details: read-out: IC50_Mean
T4 sequence (Q13324 whole entry): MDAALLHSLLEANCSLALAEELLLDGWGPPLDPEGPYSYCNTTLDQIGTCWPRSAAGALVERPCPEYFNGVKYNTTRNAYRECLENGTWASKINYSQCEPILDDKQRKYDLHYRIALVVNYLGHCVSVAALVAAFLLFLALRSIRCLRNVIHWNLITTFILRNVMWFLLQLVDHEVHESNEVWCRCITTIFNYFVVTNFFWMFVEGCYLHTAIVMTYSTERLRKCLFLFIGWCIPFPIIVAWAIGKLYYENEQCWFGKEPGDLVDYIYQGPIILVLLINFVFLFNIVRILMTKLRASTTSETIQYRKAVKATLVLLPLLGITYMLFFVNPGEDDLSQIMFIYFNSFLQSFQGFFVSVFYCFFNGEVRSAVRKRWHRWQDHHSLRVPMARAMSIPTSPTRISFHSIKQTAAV
T4 sequence (P24387 whole entry): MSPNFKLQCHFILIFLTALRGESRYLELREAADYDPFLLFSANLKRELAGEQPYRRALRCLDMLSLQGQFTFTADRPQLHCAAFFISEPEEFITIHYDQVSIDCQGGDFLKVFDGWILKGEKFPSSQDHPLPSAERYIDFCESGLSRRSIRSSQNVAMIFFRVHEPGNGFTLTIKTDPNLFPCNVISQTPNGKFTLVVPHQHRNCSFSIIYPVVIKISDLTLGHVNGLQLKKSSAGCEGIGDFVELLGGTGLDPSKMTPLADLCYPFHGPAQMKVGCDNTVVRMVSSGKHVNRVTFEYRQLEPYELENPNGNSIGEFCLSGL

[8] = molecular target: T4, Corticotropin-releasing factor receptor 2/Corticotropin-releasing factor-binding protein; test: activators of CRF receptor 2 with binding protein – uHTS hits, confirmation (AID 602473); type: functional; details: read-out: EC50_Mean
[9] = reduction of Shn3 3'UTR-driven luciferase in osteoblasts – cell-based, Clone20 osteoblasts, firefly luciferase, cherry-picked, dose response (AID 624132); type: functional;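 further: firefly luciferase luminescence from reporter carrying the Shn3 3'UTR in osteoblasts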
[10] = loss of viability in HepG2 cells – cell-based, CellTiter-Glo, cherry-picked, cytotoxicity control for Shn3 inhibitor project, dose response (AID 624134); type: functional
[11] = viability of uninfected HEp-2 cells – cell-based, HTS, cytotoxicity control for RSV inhibitor project, dose response (AID 2410); type: functional; details: human respiratory syncytial virus
[12] = system: Streptococcus sp. 'group A'; test: Streptococcus pyogenes SK(-)GAS viability under kanamycin – luminescence, BacTiterGlo, confirmation, counter-screen for streptokinase expression inhibitor project, dose response (AID 1900); type: functional, organism-based
Streptokinase A = molecular target: T5, Streptokinase A (Streptococcus pyogenes serotype M1, UniProt P10520); test: viability-normalized secreted streptokinase activity reduction – plasminogen activation absorbance, OD405, dose response (AID 1914); type: functional, Streptococcus pyogenes M1 GAS;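 further: secreted streptokinase activity via plasminogen activation per viability signal from cell pellet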
T5 sequence (P10520 whole entry): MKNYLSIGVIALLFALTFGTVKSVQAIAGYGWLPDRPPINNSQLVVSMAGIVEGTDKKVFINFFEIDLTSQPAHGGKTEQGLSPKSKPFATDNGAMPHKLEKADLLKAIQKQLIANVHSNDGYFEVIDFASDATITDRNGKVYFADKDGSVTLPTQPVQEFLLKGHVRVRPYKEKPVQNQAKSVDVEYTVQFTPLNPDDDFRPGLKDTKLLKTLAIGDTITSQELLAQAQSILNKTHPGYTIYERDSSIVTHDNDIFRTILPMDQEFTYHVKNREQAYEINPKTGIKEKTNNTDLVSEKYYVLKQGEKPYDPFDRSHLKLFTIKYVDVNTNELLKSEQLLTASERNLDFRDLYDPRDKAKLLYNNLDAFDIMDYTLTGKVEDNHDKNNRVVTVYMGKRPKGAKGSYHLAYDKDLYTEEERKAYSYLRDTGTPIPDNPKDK

Streptococcus = test: GAS UMAA2166 growth inhibition – luminescence, BacTiterGlo, counter-screen for streptokinase expression inhibitor project, dose response (AID 1915); type: functional, organism-based;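 further: potency for reduction of bacterial viability or growth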

Sequence of Cytochrome P450 2C19 (P33261 whole entry): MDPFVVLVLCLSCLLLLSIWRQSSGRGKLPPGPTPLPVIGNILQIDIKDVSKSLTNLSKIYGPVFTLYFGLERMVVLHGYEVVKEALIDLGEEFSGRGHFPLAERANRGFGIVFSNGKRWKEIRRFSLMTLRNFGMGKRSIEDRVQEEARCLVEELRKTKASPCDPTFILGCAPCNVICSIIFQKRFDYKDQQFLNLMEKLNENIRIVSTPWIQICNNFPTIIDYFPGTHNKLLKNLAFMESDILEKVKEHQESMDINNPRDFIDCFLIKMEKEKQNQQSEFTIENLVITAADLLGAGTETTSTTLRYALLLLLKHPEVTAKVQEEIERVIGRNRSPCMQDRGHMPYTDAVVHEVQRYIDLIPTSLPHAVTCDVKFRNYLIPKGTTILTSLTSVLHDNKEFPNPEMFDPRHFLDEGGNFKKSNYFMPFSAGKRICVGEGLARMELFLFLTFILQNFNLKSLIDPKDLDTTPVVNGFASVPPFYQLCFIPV

CC(C)C(CCNC(=O)CC(Cc1ccccc1)c1ccco1)c1ccco1 (stereo not drawn)
AC50 (Cytochrome P450 2C19): 0.631 µM (inconclusive)
AC50 (Cytochrome P450 2D6): 5.62 µM (inconclusive)
AC50 (Cytochrome P450 3A4): 39.8 µM (inconclusive)

CCOC(=O)Nc1cccc(OCC(=O)Nc2ccccc2OC)c1
IC50 (cells): > 50 µM (active)

c1ccc(CC2CCN(C3=Nc4cccc5cccc3c45)CC2)cc1
EC50 [1]: 73.9 µM (active)
EC50 [2]: 4.58 µM (active)
EC50 [3]: 935 nM (active)
CC50 [4]: > 40 µM (active)
EC50 [5]: > 30 µM (not active)

Cc1cc(C)c2ccc3c(C)c(C)[nH]c3c2n1
IC50 (Protein skinhead-1): < 3.13 µM (active)

Clc1ccc(-c2csc(N3CCSCC3)n2)cc1
IC50 (Protein skinhead-1): > 100 µM (inactive)

CNc1ncnc2ccc(-c3ccccc3OC)cc12
AC50 (Cytochrome P450 2C19): 31.6 µM (inconclusive)
AC50 (Cytochrome P450 2D6): 25.1 µM (inconclusive)

CCCn1cnc2c(SCc3ccc(Cl)cc3)nc(N)nc21
AC50 (Cytochrome P450 2D6): 3.16 µM (inconclusive)
AC50 (Cytochrome P450 3A4): 6.31 µM (inconclusive)
AC50 (Cytochrome P450 2C9): 6.31 µM (inconclusive)

Cc1cnc(CNc2nc(-c3ccoc3)nc3ccccc23)cn1
AC50 (Cytochrome P450 2D6): 20 µM (inconclusive)

Cc1n[nH]c2c1C(c1ccc(OC(=O)c3ccco3)cc1)C(C#N)=C(N)O2 (stereo not drawn)
IC50 (cells): 35.2 µM (active)
AC50 [6]: 9.43 µM (active)
EC50 (Protein RecA): 3.62 µM (active)

Clc1ccc(-c2cc(CSc3cccc(Cl)c3)on2)cc1
IC50 (Protein skinhead-1): 59.2 µM (inactive)

COc1cccc(Cn2c(=O)c(-c3cccs3)nc3cncnc32)c1
AC50 (Cytochrome P450 2D6): 6.31 µM (inconclusive)

Cc1cccc(C(=O)N2CCc3ccccc3C2)c1[N+](=O)[O-]
IC50 [7]: > 47.1 µM (inactive)
EC50 [8]: > 53 µM (inactive)

COC(=O)C1=C(CN2CCSCC2)NC(=O)NC1c1cc(C)ccc1C (stereo not drawn)
IC50 (Protein skinhead-1): > 100 µM (inactive)

CC(C)(C)/C(O)=C/c1nc2ccccc2oc1=O
IC50 (cells): 3.06 µM (active)

CSc1cccc(NC(=O)Nc2ccc(Cl)cc2)c1
AC50 (Cytochrome P450 2D6): 3.55 µM (inconclusive)
AC50 (Cytochrome P450 3A4): 14.1 µM (inconclusive)

CC(C)COc1ccc(-c2nnc(-c3ccco3)o2)cc1
IC50 (Protein skinhead-1): > 100 µM (inactive)

CCOC(=O)CN(C(=O)CNC(=O)c1cccs1)C(C(=O)NC1CCCCC1)c1cccs1 (stereo not drawn)
IC50 (Protein skinhead-1): > 100 µM (inactive)

CCOC(=O)C(Cc1cc(C(C)=O)ccc1OCC)C(=O)OCC
IC50 (Protein skinhead-1): > 100 µM (inactive)

O=C1c2ccccc2C(=O)N1CCCSc1ccccc1
AC50 (Cytochrome P450 2D6): 3.16 µM (inconclusive)

Cc1ccc(S(=O)(=O)N2CCC3(CC2)OCCN3S(=O)(=O)c2c(C)cc(C)cc2C)cc1
AC50 [9]: 6.81 µM (active)
AC50 [10]: 56.1 µM (active)

COc1ccc(N(CC(=O)NC2CCCCC2)C(=O)CNC(=O)c2cccs2)cc1
IC50 (Protein skinhead-1): > 100 µM (inactive)

CCOC(=O)C(CC)/C(C)=N\NC(=O)c1cccc(C)c1 (stereo not drawn)
IC50 [7]: > 47.1 µM (inactive)
EC50 [8]: > 53 µM (inactive)

O=C(NCC1CC1)c1ccc(-c2cn[nH]c2)c2ccoc12
IC50 (Protein skinhead-1): 100 µM (inactive)

CN1c2ccsc2/C(=N/Nc2ccccc2)CS1(=O)=O
CC50 [11]: > 50 µM (active)
EC50 [12]: 2.34 µM (active)
EC50 (Streptokinase A): 4.12 µM (active)
EC50 (Streptococcus): 16.1 µM (active)
IC50 (cells): 37 µM (active)
